Values joined by “and” are separate entries in the source; they are usually repeats but may differ in a detail not shown here. Identical values can stand only once. Like-named read-outs stand apart in the source and are kept apart here.
Tests used:
Peronospora parasitica = test: In vivo preventive test on Peronospora parasitica (crucifer downy mildew); conditions: 500 ppm; cabbage plants sprayed 24 hours before contamination; grading 5 days after contamination vs control plants
Experimental: Cabbage plants (Eminence variety) in starter cups, sown on a 50/50 peat soil-pozzolana substrate and grown at 18-20° C., are treated at the cotyledon stage by spraying with the aqueous suspension described above. Plants, used as controls, are treated with an aqueous solution not containing the active material. After 24 hours, the plants are contaminated by spraying them with an aqueous suspension of Peronospora parasitica spores (50.000 spores per ml). The spores are collected from infected plant. The contaminated cabbage plants are incubated for 5 days at 20° C., under a humid atmosphere. Grading is carried out 5 days after the contamination, in comparison with the control plants.

[1] = type: physicochemical
Phytophthora infestans = type: in vivo; conditions: 500 ppm; tomato plants sprayed 24 hours before contamination; grading 5 days after contamination vs control plants
Botrytis cinerea = test: In vivo preventive test on Botrytis cinerea (grey mould); conditions: 500 ppm; gherkin plants sprayed 24 hours before contamination; grading 4-5 days after contamination vs control plants
Procedure, shortened: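 Gherkin plants ("Vert petit de Paris") sprayed with compound at Z11 cotyledon stage, then inoculated 24 h later with B. cinerea spores (50 000/ml) in PDB/fructose/NH4NO3/KH2PO4 nutrient solution. Incubated at 17 °C, 80% RH; % efficacy versus solvent-treated controls graded 4–5 days after contamination.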

Sphaerotheca fuliginea = test: In vivo preventive test on Sphaerotheca fuliginea (powdery mildew on cucurbits); conditions: 500 ppm; gherkin plants sprayed 24 hours before contamination; grading 12 days after contamination vs control plants
Procedure, shortened: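 Preventive spray of gherkin plants at Z11 cotyledon stage, grown at 24° C; inoculation 24 hours later with Sphaerotheca fuliginea spores (100 000 spores per ml). Efficacy graded 12 days post-inoculation as % versus solvent-treated control plants.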

Pyrenophora teres = test: In vivo preventive test on Pyrenophora teres (net blotch on barley); conditions: 500 ppm; barley plants sprayed 24 hours before contamination; grading 12 days after contamination vs control plants
Experimental: Barley plants (“Plaisant” variety), sown in starter cups on a 50/50 peat soil-pozzolana substrate and grown at 22° C. (12 h)/20° C. (12 h), are treated at the 1-leaf stage (10 cm height) by spraying with the active ingredient prepared as described above. Plants, used as controls, are treated with the mixture of acetone/tween/DMSO/water not containing the active material. After 24 hours, the plants are contaminated by spraying the leaves with an aqueous suspension of Pyrenophora teres spores (12 000 spores per ml). The spores are collected from a 12-day-old culture. […] Grading (% of efficacy) is carried out 12 days after the contamination, in comparison with the control plants.

Septoria tritici = test: In vivo preventive test on Septoria tritici (leaf spot on wheat); conditions: 500 ppm; wheat plants sprayed 24 hours before contamination; grading 21 to 28 days after contamination vs control plants
Procedure, shortened: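 Scipion wheat at 1-leaf stage sprayed with compound, controls receiving acetone/tween/DMSO/water vehicle; 24 h later leaves inoculated with Septoria tritici spores (500 000 spores per ml). Efficacy (%) graded versus control plants 21 to 28 days after contamination.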

Uromyces appendiculatus = test: In vivo preventive test on Uromyces appendiculatus (bean rust); conditions: 500 ppm; bean plants sprayed 24 hours before contamination; grading 10 days after contamination vs control plants
Experimental: Bean plants (“Saxa” variety), sown in starter cups on a 50/50 peat soil-pozzolana substrate and grown at 24° C., are treated at the 2-leaf stage (9 cm height) by spraying with the active ingredient prepared as described above. Plants, used as controls, are treated with the mixture of acetone/tween/DMSO/water not containing the active material. After 24 hours, the plants are contaminated by spraying the leaves with an aqueous suspension of Uromyces appendiculatus spores (150 000 spores per ml).

Puccinia recondita = test: In vivo preventive test on Puccinia recondita (brown rust on wheat); conditions: 500 ppm; wheat plants sprayed 24 hours before contamination; grading 10 days after contamination vs control plants
Experimental: Wheat plants (“Scipion” variety), sown in starter cups on a 50/50 peat soil-pozzolana substrate and grown at 22° C. (12 h)/20° C. (12 h), are treated at the 1-leaf stage (10 cm height) by spraying with the active ingredient prepared as described above. Plants, used as controls, are treated with the mixture of acetone/tween/DMSO/water not containing the active material. After 24 hours, the plants are contaminated by spraying the leaves with an aqueous suspension of Puccinia recondita spores (100 000 spores per ml).

Alternaria brassicae = test: In vivo preventive test on Alternaria brassicae (leaf spot on radish); conditions: 500 ppm; radish plants sprayed 24 hours before contamination; grading 5 days after contamination vs control plants
Procedure, shortened: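 Radish plants ('Pernod Clair', grown at 17 °C) were spray-treated at the 2-leaf stage; controls received solvent mix only. After 24 h, leaves were sprayed with 50 000 spores/ml from 15-day-old cultures, and % efficacy was graded 5 days post-inoculation against controls.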

[2] = method [a]: HPLC/LC-MS on reversed phase at pH 2.7, 0.1% formic acid in water / acetonitrile, linear gradient 10% to 95% acetonitrile
[3] = method [a]: HPLC/LC-MS on reversed phase at pH 2.7, 0.1% formic acid in water / acetonitrile, gradient 10% to 95% acetonitrile
[4] = HPLC on reversed phase columns, method [a]: pH 2.7, 0.1% formic acid in water / acetonitrile, linear gradient 10% to 95% acetonitrile

SMILES | Grading, protection (Peronospora parasitica) [%] | log P [1, 2] | % of efficacy (protection) (Phytophthora infestans) [%] | % of efficacy (protection) (Botrytis cinerea) [%] | % of efficacy (protection) (Sphaerotheca fuliginea) | % of efficacy (protection) (Pyrenophora teres) [%] | % of efficacy (protection) (Septoria tritici) | log P [1, 3] | log P [1, 4] | % of efficacy (protection) (Uromyces appendiculatus) [%] | % of efficacy (protection) (Puccinia recondita) [%] | % of efficacy (protection) (Alternaria brassicae)
CCn1cc(CNC(=O)C2(C)CC(c3ccc4ncc(I)cc4c3)=NO2)c(C)n1 (stereo not drawn) [compound 39] | 100 | 2.49^[a] | 100 | 100 | 100% | – | – | – | – | – | – | –
CCn1cc(CNC(=O)C2(C)CC(c3ccc4ncc(Br)cc4c3)=NO2)c(C)n1 (stereo not drawn) [compound 34] | 98 | 2.39^[a] | 99 | 100 | 94% and 98% | – | – | – | – | – | – | –
C#Cc1cnc2ccc(C3=NOC(C)(C(=O)NC(C)c4ccccn4)C3)cc2c1 (stereo not drawn) [compound 206] | – | 1.9^[a] | 93 | – | 94% | 71 | 100% | – | – | – | – | –
CC(C)NC(=O)C1(C)CC(c2ccc3ncc(Br)cc3c2)=NO1 (stereo not drawn) [compound 31] | 90 | 2.75^[a] | – | 93 | 100% | – | 100% | – | – | – | – | –
C#Cc1cnc2ccc(C3=NOC(OC)(C(=O)NC(C)C)C3)cc2c1 (stereo not drawn) [compound 406] | – | – | – | – | 100% | 83 | 100% | 2.35[a] | – | – | – | –
Cc1cnc2ccc(C3=NOC(C)(C(=O)NC(C)C)C3)cc2c1 (stereo not drawn) [compound 260] | – | – | 90 | 75 | – | 75 | 98% | – | 1.63^[a] | – | – | –
CC(C)NC(=O)C1(C)CC(c2ccc3ncc(N)cc3c2)=NO1 (racemic) [compound 435] | – | – | – | – | – | 83 | – | 1.19[a] | – | 77 | – | –
C#Cc1cnc2ccc(C3=NOC(C)(C(=O)NCc4cn(CC)nc4C)C3)cc2c1 (stereo not drawn) [compound 43] | 94 | 2.14^[a] | 100 | 100 | 100% | – | – | – | – | 97 | 75 | –
C#Cc1cnc2ccc(C3=NOC(C)(C(=O)NCc4ccc5c(c4)CCO5)C3)cc2c1 (stereo not drawn) [compound 219] | – | 2.78^[a] | – | 99 | – | 71 | – | – | – | – | – | 75%
CC(C)NC(=O)C1(C(F)(F)F)CC(c2ccc3ncc(Br)cc3c2)=NO1 (stereo not drawn) [compound 36] | 98 | 3.52^[a] | – | – | – | 79 | 100% | – | – | – | 79 | –
CCOCCCNC(=O)C1(C(F)(F)F)CC(c2ccc3ncc(Br)cc3c2)=NO1 (stereo not drawn) [compound 105] | – | 3.57^[a] | – | – | 100% | 79 | 75% | – | – | 86 | 71 | 70%
COC1(C(=O)NC(C)C)CC(c2ccc3ncc(I)cc3c2)=NO1 (racemic) [compound 436] | – | – | – | – | 100% | 92 | 100% | 2.75[a] | – | 100 | 94 | –
C#CCONC(=O)C1(C)CC(c2ccc3ncc(Br)cc3c2)=NO1 (stereo not drawn) [compound 306] | – | – | – | – | – | 75 | 78% | – | 2.22[a] | 100 | – | 71%
CCn1cc(CNC(=O)C2(C(F)(F)F)CC(c3ccc4ncc(Br)cc4c3)=NO2)c(C)n1 (stereo not drawn) [compound 35] | 90 | 3.02^[a] | – | – | – | – | 97% | – | – | – | – | –
C#Cc1cnc2ccc(C3=NOC(C)(C(=O)NCc4ccc(Cl)cc4Cl)C3)cc2c1 (stereo not drawn) [compound 198] | – | 3.73^[a] | – | 95 | – | 86 | 86% | – | – | – | – | 98%
CC(C)NC(=O)C1(C)CC(c2ccc3ncc(C(F)(F)F)cc3c2)=NO1 (racemic) [compound 384] | – | – | – | – | – | 86 | 100% | 2.90[a] | – | 79 | 89 | 83%
CCOCCCNC(=O)C1(OC)CC(c2ccc3ncc(Br)cc3c2)=NO1 (stereo not drawn) [compound 52] | – | 2.68^[a] | – | 100 | 100% | 71 | 93% and 97% | – | – | – | 88 | 71% and 75%
COC1(C(=O)NC(C)C)CC(c2ccc3ncc(Br)cc3c2)=NO1 (stereo not drawn) [compound 48] | 98 | 2.64^[a] | 100 | 100 | 100% | 93 | 100% | – | – | 96 | 89 | 97%
CCn1cc(CNC(=O)C2(OC)CC(c3ccc4ncc(Br)cc4c3)=NO2)c(C)n1 (stereo not drawn) [compound 47] | 100 | 2.31^[a] | – | 95 | – | 75 | 100% | – | – | – | – | –
CC1(C)OCC(CNC(=O)C2(C)CC(c3ccc4ncc(Br)cc4c3)=NO2)O1 (stereo not drawn) [compound 129] | – | 2.64^[a] | 85 | – | 80% | 88 | 100% | – | – | 100 | – | –
C#Cc1cnc2ccc(C3=NOC(CC)(C(=O)NCCCOCC)C3)cc2c1 (racemic) [compound 440] | – | – | – | – | 89% | 75 | – | 2.73[a] | – | – | – | –
CCn1cc(CNC(=O)C2(C)CC(c3ccc4ncc(C(F)(F)F)cc4c3)=NO2)c(C)n1 (racemic) [compound 383] | – | – | – | – | – | 86 | 100% | 2.45[a] | – | 99 | 94 | 83%
CCCn1cc(CNC(=O)C2(C)CC(c3ccc4ncc(Br)cc4c3)=NO2)c(C)n1 (stereo not drawn) [compound 49] | 100 | 2.64^[a] | 100 | 100 | 98% | – | 79% and 97% | – | – | – | – | –
